Counter-ions that a name gives are not always drawn. Like-named read-outs stand apart in the source and are kept apart here.
What was measured:
[1] = system: fibrin- and LPS-induced microglia activation; test: cells; type: cell-based, rat; details: classification by fibrin and LPS inhibition, HTS at 10 μM
primary rat microglia [2] = test: Cell toxicity (dead cells, size <150 μm2) in coated fibrin (cFib) assay; details: primary microglia HTS, fibrin assay, dead cells (size <150 μm2), compounds at 10 μM;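 also: share of dead cells sized under 150 µm2 at 10 µM in fibrin-stimulated microglia HTS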
[3] = system: fibrin-induced microglia activation; test: Image-based assay of fibrin-induced microglia activation (HTS and dose response); type: cell-based, rat; details: primary microglia HTS, fibrin stimulation, compounds at 10 μM; for inhibition at 10 µM: Rattus norvegicus, Microglia, read-out: Fibrin % inhibition
[4] = system: LPS-induced microglia activation; test: Image-based assay of LPS-induced microglia activation (HTS and dose response); type: cell-based, rat; details: primary microglia HTS, LPS stimulation, compounds at 10 μM; for inhibition at 10 µM: Rattus norvegicus, Microglia, read-out: LPS % inhibition
primary rat microglia [5] = system: primary rat microglia

SMILES | Quadrant (FIG. 5b) [1] | Fibrin % cell toxicity (primary rat microglia [2]) [%] | inhibition at 10 µM [3] [%] | inhibition at 10 µM [4] [%] | LPS % cell toxicity (primary rat microglia [5]; rat) [%] | Fibrin % inhibition ([3]; 10 µM) [%] | LPS % inhibition ([4]; 10 µM) [%] | Fibrin % inhibition [3] [%] | LPS % inhibition [4] [%] | LPS % cell toxicity (primary rat microglia [5]) [%]
CCCCC[C@H](O)/C=C/[C@@H]1[C@@H](C/C=C\CCCC(=O)O)[C@@H](O)C[C@H]1O [Dinoprost Tromethamine] | Q4 | 1 | 36 | 15 | 0 |  |  |  |  | 
COc1ccc(-c2cc(=O)c3c(O)cc(O[C@@H]4O[C@H](CO[C@@H]5O[C@@H](C)[C@H](O)[C@@H](O)[C@H]5O)[C@@H](O)[C@H](O)[C@H]4O)cc3o2)cc1O [Diosmin] | Q4 | 1 | -12 | 10 | 0 |  |  |  |  | 
COc1ccc(C(=O)c2ccccc2O)c(O)c1 [Dioxybenzone] | Q4 | 1 | -4 | 16 | 0 |  |  |  |  | 
O=C(Nc1ccccc1)OCC(CN1CCCCC1)OC(=O)Nc1ccccc1 (stereo not shown) [Diperodon Hydrochloride] | Q4 | 1 | 42 | 26 | 1 |  |  |  |  | 
OC(CCCN1CCCCC1)(c1ccccc1)c1ccccc1 [Diphenidol] | Q4 | 1 | -34 | -5 | 0 |  |  |  |  | 
CC(=O)Oc1cccc(C(=O)O)c1OC(C)=O [Dipyrocetyl] | Q4 | 1 | -1 | 7 | 0 |  |  |  |  | 
CC[C@H]1OC(=O)[C@H](C)[C@@H](O[C@H]2C[C@@](C)(OC)[C@@H](O)[C@H](C)O2)[C@H](C)[C@@H](O[C@@H]2O[C@H](C)C[C@H](N(C)C)[C@H]2O)[C@](C)(O)C[C@@H](C)[C@@H]2N[C@@H](COCCOC)O[C@H]([C@H]2C)[C@]1(C)O [Dirithromycin] | Q4 | 1 | 7 | 27 | 1 |  |  |  |  | 
CC(C)N(CCC(C(N)=O)(c1ccccc1)c1ccccn1)C(C)C (stereo not shown) [Disopyramide] | Q4 | 1 | -13 | 1 | 0 |  |  |  |  | 
CCOC(=S)SSC(=S)OCC [Dixanthogen] | Q4 | 1 | 4 | 17 | 0 |  |  |  |  | 
CC(CCc1ccc(O)cc1)NCCc1ccc(O)c(O)c1 (stereo not shown) [Dobutamine Hydrochloride] | Q4 | 1 |  |  | 0 | 22 | 27 |  |  | 
CC(CCc1ccc(O)cc1)NCCc1ccc(O)c(O)c1 (stereo not shown) [Dobutamine] | Q4 | 1 |  |  | 0 | −29 | −7 |  |  | 
CC/C=C\C/C=C\C/C=C\C/C=C\C/C=C\C/C=C\CCC(=O)O [Doconexent] | Q4 | 1 | 3 | 11 | 0 |  |  |  |  | 
CCCCCCCCCCCCCCCCCCCCCCO [Docosanol] | Q4 | 0 | -10 | -2 | 0 |  |  |  |  | 
CCCCC(CC)COC(=O)CC(C(=O)OCC(CC)CCCC)S(=O)(=O)[O-].[Na+] (stereo not shown) [Docusate Sodium] | Q4 | 0 |  |  |  |  |  | −39 | −4 | 0
CN(CCOc1ccc(NS(C)(=O)=O)cc1)CCc1ccc(NS(C)(=O)=O)cc1 [Dofetilide] | Q4 | 1 | -26 | 5 | 0 |  |  |  |  | 
CO[C@H]1C[C@H](O[C@H]2[C@H](C)O[C@@H](O[C@@H]3/C(C)=C/C[C@@H]4C[C@@H](C[C@]5(C=C[C@H](C)[C@@H](C6CCCCC6)O5)O4)OC(=O)[C@@H]4C=C(C)[C@@H](O)[C@H]5OC/C(=C\C=C\[C@@H]3C)[C@]54O)C[C@@H]2OC)O[C@@H](C)[C@@H]1O [Doramectin] | Q4 | 1 |  |  |  |  |  | −9 | 7 | 0
CCN1CC(CCN2CCOCC2)C(c2ccccc2)(c2ccccc2)C1=O (stereo not shown) [Doxapram Hydrochloride] | Q4 | 0 | -18 | 9 | 0 |  |  |  |  | 
COc1cc2nc(N3CCN(C(=O)C4COc5ccccc5O4)CC3)nc(N)c2cc1OC (stereo not shown) [Doxazosin] | Q4 | 0 | -26 | 6 | 0 |  |  |  |  | 

SMILES | Quadrant (FIG. 5b) [1] | Fibrin % cell toxicity (primary rat microglia [2]) [%] | inhibition at 10 µM [3] [%] | inhibition at 10 µM [4] [%] | LPS % cell toxicity (primary rat microglia [5]; rat) [%] | Fibrin % inhibition ([3]; 10 µM) [%] | LPS % inhibition ([4]; 10 µM) [%] | Fibrin % inhibition [3] [%] | LPS % inhibition [4] [%] | LPS % cell toxicity (primary rat microglia [5]) [%]
C[C@H]1c2cccc(O)c2C(=O)C2=C(O)[C@]3(O)C(=O)C(C(N)=O)=C(O)[C@@H](N(C)C)[C@@H]3[C@@H](O)[C@@H]21 [Doxycycline] | Q4 | 0 | -19 | 18 | 0 |  |  |  |  | 
CN(C)CCOC(C)(c1ccccc1)c1ccccn1 (stereo not shown) [Doxylamine] | Q4 | 1 | -45 | 17 | 0 |  |  |  |  | 
CCN(CC)CCOC(=O)C(c1ccccc1)C1CCCCC1 (stereo not shown) [Drofenine Hydrochloride] | Q4 | 1 | -44 | 9 | 0 |  |  |  |  | 
OCC(O)CN1CCN(c2ccccc2)CC1 (stereo not shown) [Dropropizine] | Q4 | 1 | -26 | 11 | 0 |  |  |  |  | 
C[C@]12CCC(=O)C=C1[C@@H]1C[C@@H]1[C@H]1[C@@H]3[C@@H]4C[C@@H]4[C@@]4(CCC(=O)O4)[C@@]3(C)CC[C@@H]12 [Drospirenone] | Q4 | 1 | 11 | 6 | 1 |  |  |  |  | 
CC(=O)[C@H]1CC[C@H]2[C@@H]3C=CC4=CC(=O)CC[C@@]4(C)[C@@H]3CC[C@]12C [Dydrogesterone] | Q4 | 0 | -11 | 4 | 0 |  |  |  |  | 
Cn1c(=O)c2c(ncn2CC(O)CO)n(C)c1=O (stereo not shown) [Dyphylline] | Q4 | 0 | -7 | -6 | 0 |  |  |  |  | 
O=c1c2ccccc2[se]n1-c1ccccc1 [Ebselen] | Q4 | 0 | -49 | -1 | 0 |  |  |  |  | 
CC1(C)C2CCC1(CS(=O)(=O)O)C(=O)C2=Cc1ccc(C=C2C(=O)C3(CS(=O)(=O)O)CCC2C3(C)C)cc1 [Ecamsule] | Q4 | 1 |  |  |  |  |  | 20 | 29 | 0
C[C@@H](O)CN(CCN(C[C@@H](C)O)C[C@@H](C)O)C[C@@H](C)O [Editol] | Q4 | 1 |  |  |  |  |  | 24 | 3 | 0
CCc1cn([C@H]2C[C@H](O)[C@@H](CO)O2)c(=O)[nH]c1=O [Edoxudine] | Q4 | 0 | -10 | 1 | 0 |  |  |  |  | 
CC[N+](C)(C)c1cccc(O)c1 [Edrophonium] | Q4 | 1 | -9 | -2 | 0 |  |  |  |  | 
CCC1(C2=NCCN2)Cc2ccccc2O1 (stereo not shown) [Efaroxan, Efaroxan Hydrochloride] | Q4 | 1 |  |  |  |  |  | 1 | 5 | 0
O=C1Nc2ccc(Cl)cc2[C@@](C#CC2CC2)(C(F)(F)F)O1 [Efavirenz] | Q4 | 1 | -7 | -5 | 0 |  |  |  |  | 
CCOC(=O)COc1ccc2c(=O)cc(-c3ccccc3)oc2c1 [Efloxate] | Q4 | 1 | -8 | -1 | 0 |  |  |  |  | 
CN1CCC[C@@H]1Cc1c[nH]c2ccc(CCS(=O)(=O)c3ccccc3)cc12 [Eletriptan Hydrobromide] | Q4 | 1 | -14 | 12 | 0 |  |  |  |  | 
CC(=O)[C@H]1CC[C@H]2[C@@H]3CC[C@@H]4C[C@H](O)CC[C@]4(C)[C@H]3CC[C@]12C [Eltanolone] | Q4 | 1 | -6 | 4 | 0 |  |  |  |  | 

From patent publication US20210330611A1, “THERAPY FOR NEUROLOGICAL DISEASES/DISORDERS” (priority 2020, published 2021)
